Assay results published in patent publication US9174948B2, “Desferrithiocin polyether analogues” (University of Florida Research Foundation, Inc., priority 2007, dated 2015).
Read-outs that look alike come from different tables or passages of the source.

Columns and labels:
[1] = test system: Iron-Overloaded Cebus apella Primates; conditions: Cebus apella, po, 150 μmol/kg, historical data; cited from earlier work
[2] = test system: Non-Iron-Overloaded Rodents; conditions: rats, po, 300 μmol/kg, historical data; cited from earlier work
[3] = earlier preclinical studies; cited from earlier work
[4] = Chelator tissue distribution in rodents; format: in vivo, rat (male Sprague-Dawley); conditions: rats, sc, 300 μmol/kg; for concentration at 0.5 h: male, Sprague-Dawley, rat, plasma
Procedure: Collection of Tissue Distribution Samples from Rodents: Male Sprague-Dawley rats (250-350 g) were given a single sc injection of the monosodium salts of 6 and 9 prepared as described above at a dose of 300 μmol/kg. At times 0.5, 1, 2, and 4 h after dosing (n=3 rats per time point) the animals were euthanized by exposure to CO2 gas. Blood was obtained via cardiac puncture into vacutainers containing sodium citrate. The blood was centrifuged, and the plasma was separated for analysis. The liver, heart, kidneys, and pancreas were then removed from the animals. […] J. Med. Chem. 2006, 49, 2772-2783]. In the current study, tissues from the (S)-3′-(HO)-DADFT-PE (9) and (S)-5′-(HO)-DADFT-PE (6) treated rats were prepared for HPLC analysis by homogenizing them in 0.5 N HClO4 at a ratio of 1:3 (w/v). Then, as a rinse, CH3OH at a ratio of 1:3 (w/v) was added and the mixture was stored at −20° C. for 30 min. This homogenate was centrifuged. The supernatant was diluted with mobile phase A (95% buffer [25 mM KH2PO4, pH 3.0]/5% CH3CN), vortexed, and filtered with a 0.2 μm membrane. Analytical separation was performed on a Discovery RP Amide C16 HPLC system with UV detection at 310 nm as described previously [Bergeron, R. J., Wiegand, J., Weimar, W. R., McManis, J. S., Smith, R. E. and Abboud, K. A. Iron Chelation Promoted by Desazadesferrithiocin Analogues: An Enantioselective Barrier. Chirality 2003, 15, 593-599; Bergeron, R. J., Wiegand, J., Ratliff-Thompson, K. and Weimar, W. R. The Origin of the Differences in (R)- and (S)-Desmethyldesferrithiocin: Iron-Clearing Properties. Ann. N.Y. Acad. Sci. 1998, 850, 202-216]. Mobile phase and chromatographic conditions were as follows: solvent A, 5% CH3CN/95% buffer; solvent B, 60% CH3CN/40% buffer. The concentrations were calculated from the peak area fitted to calibration curves by nonweighted least-squares linear regression with Rainin Dynamax HPLC Method Manager software (Rainin Instrument Co.).

[5] = test system: Iron-Overloaded Cebus apella Primates; test: Chelator-induced iron clearance in iron-overloaded Cebus apella primates; format: in vivo; conditions: po, 75 μmol/kg
Excerpt: Chelator-Induced Iron Clearance in Iron-Overloaded Cebus apella Primates. The iron-clearance data for all three sets of ligands are presented (Table 2). […] J. Med. Chem. 2003, 46, 1470-1477]>1 (16.8±7.2%) [Bergeron, R. J., Wiegand, J., McManis, J. S., McCosar, B. H., Weimar, W. R., Brittenham, G. M. and Smith, R. E. Effects of C-4 Stereochemistry and C-4′ Hydroxylation on the Iron Clearing Efficiency and Toxicity of Desferrithiocin Analogues. J. Med. Chem. 1999, 42, 2432-2440], the increase is not significant. Although (S)-4′-(HO)-DADFT-PE (3) is the least lipophilic chelator in the 1-3 series, it is just as efficient (ICE, 25.4±7.4%) [Bergeron, R. J., Wiegand, J., McManis, J. S., Vinson, J. R. T., Yao, H., Bharti, N. and Rocca, J. R. (S)-4,5-Dihydro-2-(2-hydroxy-4-hydroxyphenyl)-4-methyl-4-thiazolecarboxylic Acid Polyethers: A Solution to Nephrotoxicity.
The monkeys (3.5-4 kg) were iron overloaded with intravenous iron dextran as specified in earlier publications to provide about 500 mg of iron per kg of body weight [Bergeron, R. J., Streiff, R. R., Wiegand, J., Luchetta, G., Creary, E. A. and Peter, H. H. A Comparison of the Iron-Clearing Properties of 1,2-Dimethyl-3-hydroxypyrid-4-one, 1,2-Diethyl-3-hydroxypyrid-4-one, and Deferoxamine. Blood 1992, 79, 1882-1890]; the serum transferrin iron saturation rose to between 70 and 80%. At least 20 half-lives, 60 d [Wood, J. K., Milner, P. F. and Pathak, U. N. The Metabolism of Iron-dextran Given as a Total-dose Infusion to Iron Deficient Jamaican Subjects. Br. J. Haematol. 1968, 14, 119-129], elapsed before any of the animals were used in experiments evaluating iron-chelating agents.
Fecal and urine samples were collected at 24-h intervals and processed as described previously [Bergeron, R. J., Streiff, R. R., Creary, E. A., Daniels, R. D., Jr., King, W., Luchetta, G., Wiegand, J., Moerker, T. and Peter, H. H. A Comparative Study of the Iron-Clearing Properties of Desferrithiocin Analogues with Desferrioxamine B in a Cebus Monkey Model. Blood 1993, 81, 2166-2173; Bergeron, R. J., Streiff, R. R., Wiegand, J., Vinson, J. R. T., Luchetta, G., Evans, K. M., Peter, H. and Jenny, H.-B. A Comparative Evaluation of Iron Clearance Models. Ann. N.Y. Acad. Sci. 1990, 612, 378-393; Bergeron, R. J., Wiegand, J. and Brittenham, G. M. HBED: A Potential Alternative to Deferoxamine for Iron-Chelating Therapy. Blood 1998, 91, 1446-1452]. Briefly, the collections began 4 d prior to the administration of the test drug and continued for an additional 5 d after the drug was given. Iron concentrations were determined by flame atomic absorption spectroscopy as presented in other publications [Bergeron, R. J., Streiff, R. R., Wiegand, J., Vinson, J. R. T., Luchetta, G., Evans, K. M., Peter, H. and Jenny, H.-B. A Comparative Evaluation of Iron Clearance Models. Ann. N.Y. Acad. Sci. 1990, 612, 378-393; Bergeron, R. J., Wiegand, J., Wollenweber, M., McManis, J. S., Algee, S. E. and Ratliff-Thompson, K. Synthesis and Biological Evaluation of Naphthyldesferrithiocin Iron Chelators. J. Med. Chem. 1996, 39, 1575-1581].
(§1) In the iron-clearing experiments, the rats were given a single 300 μmol/kg dose of drugs 1-9 orally (po).
(§2) J. Med. Chem. 1999, 42, 2432-2440].

[6] = test system: Non-Iron-Overloaded Rodents; test: Chelator-induced iron clearance in non-iron-overloaded, bile duct-cannulated rats; format: in vivo, rat (male Sprague-Dawley); conditions: po, 300 μmol/kg; for ICE of the polyether relative to that of the parent ligand: 1 vs 3, 4 vs 6, 7 vs 9
Excerpt: Chelator-Induced Iron Clearance in Non-Iron-Overloaded Rodents. […] J. Med. Chem. 2006, 49, 2772-2783]. Recall that iron-clearing efficiency (ICE) is defined as (net iron excretion)/(total iron-binding capacity of the chelator), expressed as a percent. The relative ICE values of compounds 1 and 2 were in keeping with their log Papp values: the more lipophilic, the larger log Papp, the more efficient the chelator. […] However, the ICE trend was in keeping with the biliary ferrokinetics (FIG. 3) and liver concentration of the chelators, for example, 3>1 (FIG. 4).
Cannulation of Bile Duct in Non-Iron-Overloaded Rats has been described previously. […]. […] The urine sample(s) was taken at 24 h intervals. Sample collection and handling are as previously described [Bergeron, R. J., Streiff, R. R., Creary, E. A., Daniels, R. D., Jr., King, W., Luchetta, G., Wiegand, J., Moerker, T. and Peter, H. H. A Comparative Study of the Iron-Clearing Properties of Desferrithiocin Analogues with Desferrioxamine B in a Cebus Monkey Model. Blood 1993, 81, 2166-2173; Bergeron, R. J., Streiff, R. R., Wiegand, J., Vinson, J. R. T., Luchetta, G., Evans, K. M., Peter, H. and Jenny, H.-B. A Comparative Evaluation of Iron Clearance Models. Ann. N.Y. Acad. Sci. 1990, 612, 378-393].
as §1, §2

[7] = Iron clearance performance ratio in primates versus rodents; format: in vivo, Cebus apella / rat; conditions: mean ICE primates / mean ICE rodents
Excerpt: Iron Clearance Performance Ratio in Primates versus Rodents. The performance ratio (PR), defined as the mean ICEprimates/ICErodents, is noteworthy (Table 3). […] The mean ICE for the primate group can be compared with the mean ICE of the rodent group (Table 3). […] This is not the case with the 5′-polyether (6), whose ICE is virtually identical in the two species. The largest differences in performance ratios generally unfold with the parent ligands 1, 4, and 7.

## COc1ccc(C2=N[C@@](C)(C(=O)O)CS2)c(O)c1 [Compound 2, (S)-4,5-dihydro-2-(2-hydroxy-4-methoxyphenyl)-4-methyl-4-thiazolecarboxylic acid]
[1]
  Iron-Clearing Efficiency (%): 24.4±10.8%
[2]
  Iron-Clearing Efficiency (%): 6.6±2.8%
[3]
  toxicity / nephrotoxicity in words: unacceptably toxic

## COCCOCCOCCOc1ccc(O)c(C2=N[C@@](C)(C(=O)O)CS2)c1 [Compound 6, (S)-4,5-dihydro-2-[2-hydroxy-5-(3,6,9-trioxadecyloxy)phenyl]-4-methyl-4-thiazolecarboxylic acid]
[4]; 0.5 h
  concentration at 0.5 h: 324 ± 20 µM
  kidney concentration: 643±92 nmol/g wet weight
  liver concentration: 483±85 nmol/g wet weight
[4]
  decrease of liver concentration from 0.5 h to 1 h: 36%
[4]; 1 h
  drop in plasma concentration relative to 0.5 h: 39%
  kidney concentration: 435±111 nmol/g wet weight
[4]; 2 h
  drop in plasma concentration relative to 0.5 h: 54%
  kidney concentration: 321±20 nmol/g wet weight
  pancreas concentration: ≈ 30 nmol/g wet weight
[4]; 4 h
  drop in plasma concentration relative to 0.5 h: 82%
  kidney concentration: 116±65 nmol/g wet weight
[5]
  Iron-Clearing Efficiency (%): 8.1±2.8%
  relative percentages of the iron excreted in the stool and urine: 56/44
[6]
  Iron-Clearing Efficiency (%): 8.0±1.8%
  ICE of the polyether relative to that of the parent ligand: 800%
  relative percentages of the iron excreted in the bile and urine: 98/2

## COCCOCCOCCOc1cccc(C2=N[C@@](C)(C(=O)O)CS2)c1O [Compound 9, (S)-4,5-dihydro-2-[2-hydroxy-3-(3,6,9-trioxadecyloxy)phenyl]-4-methyl-4-thiazolecarboxylic acid]
[4]; 0.5 h
  concentration at 0.5 h: 62 ± 24 µM
  kidney concentration: 280±26 nmol/g wet weight
  liver concentration: 242±38 nmol/g wet weight
[4]; 1 h
  drop in plasma concentration relative to 0.5 h: 26%
  kidney concentration: 259±35 nmol/g wet weight
  liver concentration: 318±46 nmol/g wet weight
[4]; 2 h
  drop in plasma concentration relative to 0.5 h: 61%
  kidney concentration: 145±27 nmol/g wet weight
  pancreas concentration: 16 nmol/g wet weight
[4]; 4 h
  drop in plasma concentration relative to 0.5 h: 79%
  kidney concentration: 90±7 nmol/g wet weight
[5]
  Iron-Clearing Efficiency (%): 24.5±7.6%
  relative percentages of the iron excreted in the stool and urine: 72/28
[6]
  ICE of 3′-polyether relative to 4′-polyether (3), more effective: ~200%
  ICE of the polyether relative to that of the parent ligand: 230%
[6]; 48 h sample collection period
  Iron-Clearing Efficiency (%): 10.6±4.4%
  relative percentages of the iron excreted in the bile and urine: 95/5

## C[C@]1(C(=O)O)CSC(c2cc(O)ccc2O)=N1 [drawing 24]
[7]
  ICE Primate/ICE Rodent (performance ratio): 12.6

## COc1ccc(O)c(C2=N[C@@](C)(C(=O)O)CS2)c1 [drawing 25]
[7]
  ICE Primate/ICE Rodent (performance ratio): 3.0

## COCCOCCOCCOc1ccc(O)c(C2=N[C@@](C)(C(=O)O)CS2)c1 [drawing 26]
[7]
  ICE Primate/ICE Rodent (performance ratio): 1.0

## C[C@]1(C(=O)O)CSC(c2cccc(O)c2O)=N1 [drawing 27]
[7]
  ICE Primate/ICE Rodent (performance ratio): 5.0

## COc1cccc(C2=N[C@@](C)(C(=O)O)CS2)c1O [drawing 28]
[7]
  ICE Primate/ICE Rodent (performance ratio): 1.8

## COCCOCCOCCOc1cccc(C2=N[C@@](C)(C(=O)O)CS2)c1O [drawing 29]
[7]
  ICE Primate/ICE Rodent (performance ratio): 2.3
